Results on 21 compounds are retold here after patent US9957264B2 (Merck Sharp & Dohme Corp., priority 2013, dated 2018).

Assay [1] addresses JAK1 (recombinant purified GST-tagged catalytic domain) (Homo sapiens (Human), UniProt P23458). As to the kind of experiment: Jak Biochemical HTRF Assay (JAK1). Conditions: [ATP] 31.8 μM. An outline of the steps:
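Read-out is the 665/615 nm time-resolved FRET ratio from Eu-pY20 antibody and streptavidin-Dylight 650 bound to phosphorylated biotin-peptide. Reactions ran 120 min at room temperature after ATP start. Inhibition normalized to untreated controls gave IC50 via 4-parameter fit.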
(Time-resolved FRET reads energy transfer from a long-lived donor to a nearby acceptor.)

Assay [2] concerns the target JAK2 (recombinant purified GST-tagged catalytic domain) (Homo sapiens (Human), UniProt O60674). As to the kind of experiment: Jak Biochemical HTRF Assay (JAK2). The note with it: [ATP] 8.5 μM.

pIC50: −log10 of the molar value.

Chain of JAK1 (recombinant purified GST-tagged catalytic domain) (P23458 875-1153): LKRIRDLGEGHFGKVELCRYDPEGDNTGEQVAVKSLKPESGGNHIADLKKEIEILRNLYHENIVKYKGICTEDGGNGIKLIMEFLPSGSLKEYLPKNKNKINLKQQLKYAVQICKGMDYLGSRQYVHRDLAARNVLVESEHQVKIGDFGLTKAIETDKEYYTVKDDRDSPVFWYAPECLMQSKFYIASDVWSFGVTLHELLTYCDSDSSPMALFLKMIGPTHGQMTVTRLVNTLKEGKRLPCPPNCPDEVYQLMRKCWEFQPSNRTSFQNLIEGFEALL
Chain of JAK2 (recombinant purified GST-tagged catalytic domain) (O60674 849-1124): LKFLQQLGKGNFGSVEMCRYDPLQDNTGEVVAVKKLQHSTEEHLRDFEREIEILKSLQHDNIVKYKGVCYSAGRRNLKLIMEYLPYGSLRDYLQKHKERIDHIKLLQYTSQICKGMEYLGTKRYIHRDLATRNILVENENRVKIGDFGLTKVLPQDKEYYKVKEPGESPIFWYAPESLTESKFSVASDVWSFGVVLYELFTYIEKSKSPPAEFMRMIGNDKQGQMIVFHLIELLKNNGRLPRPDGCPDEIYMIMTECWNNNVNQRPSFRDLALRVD

Usually pIC50 stands for −log10 of the IC50, conventionally taken in molar units. Take `CC(C)(C)OC(=O)[C@@H]1CC[C@](CC#N)(n2nc(Nc3ccc(S(C)(=O)=O)cc3)c3c(=O)[nH]ccc32)CO1` (single isomer, unassigned) [Example 5-37, (2R,5S or 2S,5R)-tert-butyl 5-(cyanomethyl)-5-(3-((4-(methylsulfonyl)phenyl)amino)-4-oxo-4,5-dihydro-1H-pyrazolo[4,3-c]pyridin-1-yl)tetrahydro-2H-pyran-2-carboxylate]: the results for the pIC50 in assay [1] and in assay [2] were 8.71 and 7.77, respectively.

Regarding `COCC(=O)N1CCC(CC#N)(n2nc(Nc3ccc(S(=O)(=O)N(C)C)cc3)c3c(=O)[nH]ccc32)CC1` [Example 9-3, 4-({1-[4-(cyanomethyl)-1-(methoxyacetyl)piperidin-4-yl]-4-oxo-4,5-dihydro-1H-pyrazolo[4,3-c]pyridin-3-yl}amino)-N,N-dimethylbenzenesulfonamide], the figures for the pIC50 in assay [1] and in assay [2] were 9.62 and 8.79, respectively.

In the case of `CC(C)(C)OC(=O)N1CC[C@@](CC#N)(n2nc(Nc3ccc(S(C)(=O)=O)cc3)c3c(=O)[nH]ccc32)[C@@H](F)C1` [Example 5-16, tert-butyl (3S,4S)-4-(cyanomethyl)-3-fluoro-4-(3-{[4-(methyl-sulfonyl)phenyl]amino}-4-oxo-4,5-dihydro-1H-pyrazolo[4,3-c]pyridin-1-yl)piperidine-1-carboxylate], the values for the pIC50 in assay [1] and in assay [2] were 9.92 and 9.46, respectively.

Take `CC(c1ccc(Nc2nn([C@]3(CC#N)CCCOC3)c3cc[nH]c(=O)c23)cc1)N1CCCC1` (single isomer, unassigned) [Example 5-200, {(3S)-3-[4-oxo-3-({4-[(1S or 1R)-1-pyrrolidin-1-ylethyl]phenyl}amino)-4,5-dihydro-1H-pyrazolo[4,3-c]pyridin-1-yl]tetrahydro-2H-pyran-3-yl}acetonitrile]: the negative-log IC50 (pIC50) in assay [1] was 8.94; in assay [2], 9.28.

With `CCNc1nn(C2(CC#N)CCN(C(=O)OC(C)(C)C)CC2)c2cc[nH]c(=O)c12` [Example 2-1, tert-butyl 4-(cyanomethyl)-4-[3-(ethylamino)-4-oxo-4,5-dihydro-1H-pyrazolo[4,3-c]pyridin-1-yl]piperidine-1-carboxylate], the results for the pIC50 in assay [1] and in assay [2] were 7.32 and 7.22, respectively.

Consider `CN(C)S(=O)(=O)c1ccc(Nc2nn(C3(CC#N)CCN(C(=O)c4ccccc4)CC3)c3cc[nH]c(=O)c23)cc1` [Example 9-12, 4-({1-[4-(cyanomethyl)-1-(phenylcarbonyl)piperidin-4-yl]-4-oxo-4,5-dihydro-1H-pyrazolo[4,3-c]pyridin-3-yl}amino)-N,N-dimethylbenzenesulfonamide], for which the results for the negative-log IC50 (pIC50) in assay [1] and in assay [2] were 8.77 and 7.78, respectively.

Regarding `CC1(C)C(=O)Nc2cc(Nc3nn([C@@]4(CC#N)CCCC[C@H]4F)c4cc[nH]c(=O)c34)ccc21` [Example 21-2, [(1R,2R)-1-{3-[(3,3-dimethyl-2-oxo-2,3-dihydro-1H-indol-6-yl)amino]-4-oxo-4,5-dihydro-1H-pyrazolo[4,3-c]pyridin-1-yl}-2-fluorocyclohexyl]acetonitrile], the negative-log IC50 (pIC50) in assay [1] and in assay [2] was 10.40 throughout.

As for `CC(O)(c1ccc(Nc2nn([C@@]3(CC#N)CCCC[C@H]3F)c3cc[nH]c(=O)c23)cc1)C(F)(F)F` (single isomer, unassigned) [Example 5-85, {(1R,2R)-2-fluoro-1-[4-oxo-3-({4-[(1S or 1R)-2,2,2-trifluoro-1-hydroxy-1-methylethyl]phenyl}amino)-4,5-dihydro-1H-pyrazolo[4,3-c]pyridin-1-yl]cyclohexyl}acetonitrile], the pIC50 in assay [1] is 10.15; in assay [2], 9.77.

In the case of `Cc1cc(Nc2nn([C@]3(CC#N)CCCOC3)c3cc[nH]c(=O)c23)ccc1C(=O)N1CCC(O)(C(F)(F)F)C1` (single isomer, unassigned) [Example 5-114, 2-((S)-3-(3-((4-((S or R)-3-hydroxy-3-(trifluoromethyl)pyrrolidine-1-carbonyl)-3-methylphenyl)amino)-4-oxo-4,5-dihydro-1H-pyrazolo[4,3-c]pyridin-1-yl)tetrahydro-2H-pyran-3-yl)acetonitrile], the results for the negative-log IC50 (pIC50) in assay [1] and in assay [2] were 9.48 and 8.88, respectively.

In the case of `CN1Cc2cc(Nc3nn([C@]4(CC#N)CC[C@@H](C(=O)OC(C)(C)C)OC4)c4cc[nH]c(=O)c34)ccc2S1(=O)=O` [Example 5-55, (2S,5S)-tert-butyl 5-(cyanomethyl)-5-(3-((2-methyl-1,1-dioxido-2,3-dihydrobenzo[d]isothiazol-5-yl)amino)-4-oxo-4,5-dihydro-1H-pyrazolo[4,3-c]pyridin-1-yl)tetrahydro-2H-pyran-2-carboxylate], the negative logarithm of the IC50 (pIC50) in assay [1] was 10.30; in assay [2], 9.92.

Regarding `CN(C)S(=O)(=O)c1ccc(Nc2nn(C3(CC#N)CCN(C(=O)C(C)(C)C)CC3)c3cc[nH]c(=O)c23)cc1` [Example 9-5, 4-({1-[4-(cyanomethyl)-1-(2,2-dimethylpropanoyl)piperidin-4-yl]-4-oxo-4,5-dihydro-1H-pyrazolo[4,3-c]pyridin-3-yl}amino)-N,N-dimethylbenzenesulfonamide], the pIC50 was 9.26 in assay [1] and 8.52 in assay [2].

For the compound `CN(C)S(=O)(=O)c1ccc(Nc2nn(C3(CC#N)CCN(C(=O)CC4CC4)CC3)c3cc[nH]c(=O)c23)cc1` [Example 9-10, 4-({1-[4-(cyanomethyl)-1-(cyclopropylacetyl)piperidin-4-yl]-4-oxo-4,5-dihydro-1H-pyrazolo[4,3-c]pyridin-3-yl}amino)-N,N-dimethylbenzenesulfonamide], the negative-log IC50 (pIC50) was 9.77 in assay [1] and 8.97 in assay [2].

As for `COC(=O)N1CCC(CC#N)(n2nc(Nc3ccc(S(=O)(=O)C(C)(C)C)cc3)c3c(=O)[nH]ccc32)CC1` [Example 5-150, methyl 4-(3-((4-(tert-butylsulfonyl)phenyl)amino)-4-oxo-4,5-dihydro-1H-pyrazolo [4,3-c]pyridin-1-yl)-4-(cyanomethyl)piperidine-1-carboxylate], the pIC50 is 10.00 in assay [1] and 9.85 in assay [2].

`CC(C)(C)OC(=O)N1CCC(CC#N)(n2nc(Nc3ccc4c(c3)CCC4=O)c3c(=O)[nH]ccc32)CC1` [Example 5-12, tert-butyl 4-(cyanomethyl)-4-(4-oxo-3-((1-oxo-2,3-dihydro-1H-inden-5-yl)amino)-4,5-dihydro-1H-pyrazolo[4,3-c]pyridin-1-yl)piperidine-1-carboxylate]: the negative-log IC50 (pIC50) is 9.92 in assay [1] and 9.21 in assay [2].

As for `CC(C)(C)OC(=O)N1CCC(CC#N)(n2nc(Nc3ccnc(F)c3)c3c(=O)[nH]ccc32)CC1` [Example 5-78, tert-butyl 4-(cyanomethyl)-4-{3-[(2-fluoropyridin-4-yl)amino]-4-oxo-4,5-dihydro-1H-pyrazolo[4,3-c]pyridin-1-yl}piperidine-1-carboxylate], the pIC50 was 9.74 in assay [1] and 8.67 in assay [2].

As to `CC(C)(C)OC(=O)[C@@H]1CC[C@@](CC#N)(n2nc(Nc3ccc4c(c3)CN(C(C)(C)C)C4=O)c3c(=O)[nH]ccc32)CO1` [Example 5-100, (2S,5S)-tert-butyl 5-(3-((2-(tert-butyl)-1-oxoisoindolin-5-yl)amino)-4-oxo-4,5-dihydro-1H-pyrazolo[4,3-c]pyridin-1-yl)-5-(cyanomethyl)tetrahydro-2H-pyran-2-carboxylate], the negative-log IC50 (pIC50) was 9.85 in assay [1] and 9.59 in assay [2].

For `CC(C)NC(c1ccc(Nc2nn([C@]3(CC#N)CCCOC3)c3cc[nH]c(=O)c23)cc1)C(F)(F)F` (single isomer, unassigned) [Example 5-206, [(3S)-3-{4-oxo-3-[(4-{(1S or 1R)-2,2,2-trifluoro-1-[(1-methylethyl)amino]ethyl}phenyl)amino]-4,5-dihydro-1H-pyrazolo [4,3-c]pyridin-1-yl}tetrahydro-2H-pyran-3-yl]acetonitrile], the pIC50 in assay [1] was 9.89; in assay [2], 9.80.

Consider `CN(C)S(=O)(=O)c1ccc(Nc2nn(C3(CC#N)CCN(S(=O)(=O)C4CC4)CC3)c3cc[nH]c(=O)c23)cc1` [Example 14-2, 4-((1-(4-(cyanomethyl)-1-(cyclopropylsulfonyl)piperidin-4-yl)-4-oxo-4,5-dihydro-1H-pyrazolo[4,3-c]pyridin-3-yl)amino)-N,N-dimethylbenzenesulfonamide], for which the figures for the pIC50 in assay [1] and in assay [2] were 10.22 and 9.92, respectively.

Turning to `N#CC[C@@]1(n2nc(Nc3ccc([C@@]4(C(F)(F)F)CCCCN4)cc3)c3c(=O)[nH]ccc32)CCOC[C@@H]1F` (single isomer, unassigned) [Example 5-266, 2-((3R,4R or 3S,4S)-3-fluoro-4-(4-oxo-3-((4-((R or S)-2-(trifluoromethyl)piperidin-2-yl)phenyl)amino)-4,5-dihydro-1H-pyrazolo[4,3-c]pyridin-1-yl)tetrahydro-2H-pyran-4-yl)acetonitrile], the pIC50 in assay [1] is 10.30; in assay [2] it was 10.40.

Consider `CC(C)(C)OC(=O)[C@@H]1CC[C@@](CC#N)(n2nc(Nc3ccnc(F)c3)c3c(=O)[nH]ccc32)CO1` [Example 21-6, (2S,5S)-tert-butyl 5-(cyanomethyl)-5-(3-((2-fluoropyridin-4-yl)amino)-4-oxo-4,5-dihydro-1H-pyrazolo[4,3-c]pyridin-1-yl)tetrahydro-2H-pyran-2-carboxylate], for which the values for the pIC50 in assay [1] and in assay [2] were 9.92 and 8.65, respectively.

For `N#CC[C@@]1(n2nc(Nc3ccc4c(c3)CN(C3CCN(CC(F)(F)F)CC3)S4(=O)=O)c3c(=O)[nH]ccc32)CCOC[C@@H]1F` (single isomer, unassigned) [Example 5-277, 2-((3R,4R or 3S,4S)-4-(3-((1,1-dioxido-2-(1-(2,2,2-trifluoroethyl)piperidin-4-yl)-2,3-dihydrobenzo[d]isothiazol-5-yl)amino)-4-oxo-4,5-dihydro-1H-pyrazolo[4,3-c]pyridin-1-yl)-3-fluorotetrahydro-2H-pyran-4-yl)acetonitrile], the pIC50 in assay [1] and in assay [2] was 10.30 throughout.
